The IC50 is the concentration that inhibits the measured activity by half.

The target in the experiment is CDK5 (Homo sapiens (Human), UniProt Q00535). The experiment can be described thus: CDK5 kinase assay (Nanosyn, Caliper microfluidic). It is filed as biochemical. Particulars: ATP at Km; 12-point dose-response. The procedure: Selected compounds disclosed herein were tested in kinase assays by Nanosyn (Santa Clara, Calif.) to determine their inhibitory effect on these CDKs. The assays were performed using microfluidic kinase detection technology (Caliper Assay Platform). The compounds were tested in 12-point dose-response format in singlicate at Km for ATP.
Chain of CDK5 (Q00535 whole entry): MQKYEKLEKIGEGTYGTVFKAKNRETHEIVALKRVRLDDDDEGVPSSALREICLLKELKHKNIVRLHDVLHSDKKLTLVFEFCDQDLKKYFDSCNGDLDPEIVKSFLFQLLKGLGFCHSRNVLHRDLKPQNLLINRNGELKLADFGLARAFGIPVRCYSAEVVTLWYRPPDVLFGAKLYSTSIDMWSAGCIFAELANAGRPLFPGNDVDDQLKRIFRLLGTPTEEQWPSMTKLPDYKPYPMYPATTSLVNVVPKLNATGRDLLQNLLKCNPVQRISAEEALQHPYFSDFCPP
Chain of CDK5 (Q15078 whole entry partner): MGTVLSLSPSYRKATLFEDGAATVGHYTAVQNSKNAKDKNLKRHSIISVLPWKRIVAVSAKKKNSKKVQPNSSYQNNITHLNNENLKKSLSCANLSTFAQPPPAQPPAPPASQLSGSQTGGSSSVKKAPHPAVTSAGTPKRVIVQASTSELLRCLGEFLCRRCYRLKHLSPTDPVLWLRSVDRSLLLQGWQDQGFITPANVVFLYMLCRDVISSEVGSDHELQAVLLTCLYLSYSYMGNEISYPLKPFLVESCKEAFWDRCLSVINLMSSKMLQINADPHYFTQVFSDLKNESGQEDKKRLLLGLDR
The compound `NS(=O)(=O)c1ccc(Nc2ncc3cc4n(c3n2)C2(CCCCC2)C(=O)NC4O)cc1` (centres unmarked) [Compound 1, 4-((6′-hydroxy-8′-oxo-7′,8′-dihydro-6′H-spiro[cyclohexane-1,9′-pyrazino[1′,2′:1,5]pyrrolo[2,3-d]pyrimidin]-2'-yl)amino)benzenesulfonamide] registered an IC50 of 0.68 nM.
`NS(=O)(=O)c1ccc(Nc2ncc3cc4n(c3n2)C2(CCCCC2)CC(=O)N4)cc1` [Compound 2, 4-((7′-oxo-7′,8′-dihydro-6′H-spiro[cyclohexane-1,9′-pyrrolo[1,5-a:2,3-d′]dipyrimidin]-2′-yl)amino)benzenesulfonamide] yielded an IC50 of 1.4 nM.
In the case of `NS(=O)(=O)c1ccc(Nc2ncc3cc4n(c3n2)C2(CCCCC2)C(=O)NN4)cc1` [Compound 3, 4-((3′-oxo-2′,3′-dihydro-1′H-spiro[cyclohexane-1,4′-pyrimido[5′,4′:4,5]pyrrolo[2,1-c][1,2,4]triazin]-7′-yl)amino)benzenesulfonamide] it was 17 nM; in that of `NS(=O)(=O)c1ccc(Nc2ncc3cc4n(c3n2)C2(C=NN4)CCCCC2)cc1` [Compound 4, 4-((1′H-spiro[cyclohexane-1,4′-pyrimido[5′,4′:4,5]pyrrolo[2,1-c][1,2,4]triazin]-7′-yl)amino)benzenesulfonamide], 6 nM; in that of `CN1N=CC2(CCCCC2)n2c1cc1cnc(Nc3ccc(S(N)(=O)=O)cc3)nc12` [Compound 5, 4-((1′-methyl-1′H-spiro[cyclohexane-1,4′-pyrimido[5′,4′:4,5]pyrrolo[2,1-c][1,2,4]triazin]-7′-yl)amino)benzenesulfonamide], 30 nM.
In the case of `CN1NC(=O)C2(CCCCC2)n2c1cc1cnc(Nc3ccc(S(N)(=O)=O)cc3)nc12` [Compound 12, 4-((1′-methyl-3′-oxo-2′,3′-dihydro-1′H-spiro[cyclohexane-1,4′-pyrimido[5′,4′:4,5]pyrrolo[2,1-c][1,2,4]triazin]-7′-yl)amino)benzenesulfonamide] it was 120 nM; in that of `NS(=O)(=O)c1ccc(Nc2ncc3cc4n(c3n2)C2(CCCCC2)C(=O)N[C@H]4CF)cc1` [Compound 18, (R)-4-((6′-(fluoromethyl)-8′-oxo-7′,8′-dihydro-6′H-spiro[cyclohexane-1,9′-pyrazino[1′,2′:1,5]pyrrolo[2,3-d]pyrimidin]-2′-yl)amino)benzenesulfonamide], 16 nM; in that of `C[C@@H]1NC(=O)C2(CCCCC2)n2c1cc1cnc(Nc3ccc(S(N)(=O)=O)cc3)nc12` [Compound 19, (S)-4-((6′-methyl-8′-oxo-7′,8′-dihydro-6′H-spiro[cyclohexane-1,9′-pyrazino[1′,2′:1,5]pyrrolo[2,3-d]pyrimidin]-2′-yl)amino)benzenesulfonamide], 50 nM.
On to `NS(=O)(=O)c1ccc(Nc2ncc3cc4n(c3n2)C2(CCCCC2)C(=O)N[C@@H]4CF)cc1` [Compound 23, (S)-4-((6′-(fluoromethyl)-8′-oxo-7′,8′-dihydro-6′H-spiro[cyclohexane-1,9′-pyrazino[1′2′:1,5]pyrrolo[2,3-d]pyrimidin]-2′-yl)amino)benzenesulfonamide], for which the IC50 was found to be 12 nM.
Under `CC1C(=O)Nc2cc3cnc(Nc4ccc(S(N)(=O)=O)cc4)nc3n2C12CCCCC2` (centres unmarked) [Compound 42, 4-((8′-methyl-7′-oxo-7′,8′-dihydro-6′H-spiro[cyclohexane-1,9′-pyrrolo[1,5-a:2,3-d′]dipyrimidin]-2′-yl)amino)benzenesulfonamide] stands 2 nM; under `CC1C(=O)N(C)c2cc3cnc(Nc4ccc(S(N)(=O)=O)cc4)nc3n2C12CCCCC2` (centres unmarked) [Compound 43, 4-((6′,8′-dimethyl-7′-oxo-7′,8′-dihydro-6′H-spiro[cyclohexane-1,9′-pyrrolo[1,5-a:2,3-d′]dipyrimidin]-2′-yl)amino)benzenesulfonamide], 15 nM.
On to `CC1=NNc2cc3cnc(Nc4ccc(S(N)(=O)=O)cc4)nc3n2C12CCCCC2` [Compound 45, 4-((3′-methyl-1′H-spiro[cyclohexane-1,4′-pyrimido[5′,4′:4,5]pyrrolo[2,1-c][1,2,4]triazin]-7′-yl)amino)benzenesulfonamide], for which the IC50 stood at 48 nM.
Under `CC1=NN(C)c2cc3cnc(Nc4ccc(S(N)(=O)=O)cc4)nc3n2C12CCCCC2` [Compound 46, 4-((1′,3′-dimethyl-1′H-spiro[cyclohexane-1,4′-pyrimido[5′,4′:4,5]pyrrolo[2,1-c][1,2,4]triazin]-7′-yl)amino)benzenesulfonamide] stands 11 nM; under `CN1CCN(S(=O)(=O)c2ccc(Nc3ncc4cc5n(c4n3)C3(CCCCC3)C(=O)NN5)cc2)CC1` [Compound 49, 7′-((4-((4-methylpiperazin-1-yl)sulfonyl)phenyl)amino)-1′,2′-dihydro-3′H-spiro[cyclohexane-1,4′-pyrimido[5′,4′:4,5]pyrrolo[2,1-c][1,2,4]triazin]-3′-one], 105 nM; under `CN1CCN(S(=O)(=O)c2ccc(Nc3ncc4cc5n(c4n3)C3(CCCCC3)C(=O)NC5O)cc2)CC1` (centres unmarked) [Compound 50, 6′-hydroxy-2′-((4-((4-methylpiperazin-1-yl)sulfonyl)phenyl)amino)-6′,7′-dihydro-8′H-spiro[cyclohexane-1,9′-pyrazino[1′,2′:1,5]pyrrolo[2,3-d]pyrimidin]-8′-one], 71 nM.
In the case of `CN1CCN(S(=O)(=O)c2ccc(Nc3ncc4cc5n(c4n3)C3(CCCCC3)CC(=O)N5)cc2)CC1` [Compound 51, 2′-((4-((4-methylpiperazin-1-yl)sulfonyl)phenyl)amino)-6′H-spiro[cyclohexane-1,9′-pyrrolo[1,5-a:2,3-d′]dipyrimidin]-7′(8′H)-one] it was 7 nM.
In the case of `CN1CCN(C(=O)c2ccc(Nc3ncc4cc5n(c4n3)C3(CCCCC3)C(=O)NN5)cc2)CC1` [Compound 52, 7′-((4-(4-methylpiperazine-1-carbonyl)phenyl)amino)-1′,2′-dihydro-3′H-spiro[cyclohexane-1,4′-pyrimido[5′,4′:4,5]pyrrolo[2,1-c][1,2,4]triazin]-3′-one] it was 84 nM.
Consider `CN1CCN(C(=O)c2ccc(Nc3ncc4cc5n(c4n3)C3(CCCCC3)C(=O)NC5O)cc2)CC1` (centres unmarked) [Compound 53, 6′-hydroxy-2′-((4-(4-methylpiperazine-1-carbonyl)phenyl)amino)-6′,7′-dihydro-8′H-spiro[cyclohexane-1,9′-pyrazino[1′,2′:1,5]pyrrolo[2,3-d]pyrimidin]-8′-one], for which the IC50 is 4 nM.
As for `CN1CCN(C(=O)c2ccc(Nc3ncc4cc5n(c4n3)C3(CCCCC3)CC(=O)N5)cc2)CC1` [Compound 54, 2′-((4-(4-methylpiperazine-1-carbonyl)phenyl)amino)-6′H-spiro[cyclohexane-1,9′-pyrrolo[1,5-a:2,3-d′]dipyrimidin]-7′(8′H)-one], the IC50 came out at 3 nM.
In the case of `O=C1NCC2(CCCCC2)n2c1cc1cnc(Nc3ccc(C(=O)N4CCNCC4)cc3)nc12` [Compound 55, 2′-((4-(piperazine-1-carbonyl)phenyl)amino)-7′,8′-dihydro-6′H-spiro[cyclohexane-1,9′-pyrazino[1′,2′:1,5]pyrrolo[2,3-d]pyrimidin]-6′-one] it was 1 nM; in that of `CC1C(=O)Nc2cc3cnc(Nc4ccc(S(=O)(=O)N5CCN(C)CC5)cc4)nc3n2C12CCCCC2` (centres unmarked) [Compound 59, 8′-methyl-2′-((4-((4-methylpiperazin-1-yl)sulfonyl)phenyl)amino)-6′H-spiro[cyclohexane-1,9′-pyrrolo[1,5-a:2,3-d′]dipyrimidin]-7′(8′H)-one], 6 nM; in that of `O=C(c1ccc(Nc2ncc3cc4n(c3n2)C2(CCCCC2)C(=O)NN4)cc1)N1CCNCC1` [Compound 61, 7′-((4-(piperazine-1-carbonyl)phenyl)amino)-1′,2′-dihydro-3′H-spiro[cyclohexane-1,4′-pyrimido[5′,4′:4,5]pyrrolo[2,1-c][1,2,4]triazin]-3′-one], 72 nM.
In the case of `CN(C)C(=O)c1ccc(Nc2ncc3cc4n(c3n2)C2(CCCCC2)C(=O)NN4)cc1` [Compound 62, N,N-dimethyl-4-((3′-oxo-2′,3′-dihydro-1′H-spiro[cyclohexane-1,4′-pyrimido[5′,4′:4,5]pyrrolo[2,1-c][1,2,4]triazin]-7′-yl)amino)benzamide] it was 131 nM.
Under `NC(=O)c1ccc(Nc2ncc3cc4n(c3n2)C2(CCCCC2)C(=O)NN4)cc1` [Compound 63, 4-((3′-oxo-2′,3′-dihydro-1′H-spiro[cyclohexane-1,4′-pyrimido[5′,4′:4,5]pyrrolo[2,1-c][1,2,4]triazin]-7′-yl)amino)benzamide] stands 78 nM.
As to `CNC(=O)c1ccc(Nc2ncc3cc4n(c3n2)C2(CCCCC2)C(=O)NN4)cc1` [Compound 64, N-methyl-4-((3′-oxo-2′,3′-dihydro-1′H-spiro[cyclohexane-1,4′-pyrimido[5′,4′:4,5]pyrrolo[2,1-c][1,2,4]triazin]-7′-yl)amino)benzamide], the IC50 is 65 nM.
In the case of `O=C(c1ccc(Nc2ncc3cc4n(c3n2)C2(CCCCC2)C(=O)NN4)cc1)N1CCOCC1` [Compound 74, 7′-((4-(morpholine-4-carbonyl)phenyl)amino)-1′,2′-dihydro-3′H-spiro[cyclohexane-1,4′-pyrimido[5′,4′:4,5]pyrrolo[2,1-c][1,2,4]triazin]-3′-one] it was 92 nM.

For the origin of these results see patent publication US11643416B2, “Substituted 1′,2′-dihydro-3′H-spiro[cyclohexane-1,4′-pyrimido[5′,4′:4,5]pyrrolo[2,1-c][1,2,4]triazin]-3′-ones as cyclin-dependent kinase inhibitors” (G1 Therapeutics, Inc., priority 2020, dated 2023).
